We go through 102 compounds from PubChem BioAssay AID1996.

Structures are written as SMILES. In brackets after ≈: the same amount, converted by molar mass.

The conditions of this data set: buffer; pH 7.4; 200.0 µM.
The term kinetic solubility denotes solubility judged after dilution from a stock solution rather than from solid. For the compound `Cc1onc(-c2c(Cl)cccc2Cl)c1C(O)c1ccc(F)cc1` (configuration not stated), the solubility (kinetic) was 42.1 µg/mL (≈ 120 µM).
In the case of `Cc1cccc(N2CCN(C(=O)NC3CCCCC3)CC2C)c1` (configuration not stated) it was greater than 47.3 µg/mL.
Turning to `O=C(CSc1ncnc2nc[nH]c12)c1ccc([N+](=O)[O-])cc1`, the solubility (kinetic) was determined as 2.6 µg/mL (≈ 8.25 µM).
The compound `CC1CCCC(C)N1C(=O)COC(=O)c1ccc(Br)c(S(=O)(=O)N2CCOCC2)c1` (configuration not stated) displayed a kinetic solubility of 74.2 µg/mL (≈ 147 µM).
As for `Cc1cc(C)c2ccc3c(C)c(C)n(C)c3c2n1`, the solubility (kinetic) was less than 0.3 µg/mL.
On to `O=C(Nc1ccc(F)c(F)c1)c1ccco1`, for which the solubility (kinetic) was greater than 33.5 µg/mL.
Take `CC(C)(C)C(=O)Nc1ccccc1-c1nc2ccccc2[nH]c1=O`: the solubility (kinetic) was greater than 48.2 µg/mL.
Take `CCOc1ccc(NC(=S)N(C)C)cc1`: the kinetic solubility is greater than 33.6 µg/mL.
Take `CCN(CC(=O)NCc1ccc2c(c1)OCO2)S(=O)(=O)c1ccc(F)cc1`: the kinetic solubility is 55.6 µg/mL (≈ 141 µM).
For `CN1CC(=O)Nc2ccc([N+](=O)[O-])cc2C1=O` the value was greater than 35.3 µg/mL; for `Cl.O=C(COc1ccc(F)cc1)NCCN1CCCC1`, greater than 45.4 µg/mL.
`CCOc1ccc(NC(=O)C2CC(=O)N(Cc3ccco3)C2)cc1` (configuration not stated) registered a kinetic solubility greater than 49.3 µg/mL.
In the case of `Cc1ccccc1Cn1c(-c2ccc(=O)[nH]c2)nc2ccccc21` it was 27.8 µg/mL (≈ 88.1 µM); in that of `CCCCn1c(O)c(/C=C2\C=Nc3ccccc32)c(=O)[nH]c1=O`, 3.1 µg/mL (≈ 9.96 µM); in that of `Oc1ccc(/C=N/N2CCCCC2)cc1O`, greater than 33 µg/mL.
The compound `CN(C(=O)COC(=O)c1ccc2ccccc2n1)c1ccccc1` returned a solubility (kinetic) greater than 48.1 µg/mL.
Consider `O=C(OCc1cc(=O)n2ccsc2n1)c1ccc(O)cc1O`, for which the solubility (kinetic) amounted to 11.1 µg/mL (≈ 34.9 µM).
Compound `COCC(=O)N1CCCC(C(=O)c2ccc(C(F)(F)F)cc2)C1` (configuration not stated) returned a kinetic solubility greater than 49.4 µg/mL.
Compound `Cc1cccc(OCCSc2nc3ccccc3n2CCC(=O)O)c1` had a kinetic solubility of 53.4 µg/mL (≈ 150 µM).
Take `Cc1ccc(OCCC(=O)Nc2ccc(C)c(F)c2)cc1`: the solubility (kinetic) turned out to be 1.4 µg/mL (≈ 4.87 µM).
Consider `CC(C)(CCO)NC(=S)NC1CC2C=CC1C2` (configuration not stated), for which the solubility (kinetic) was greater than 38.2 µg/mL.
For `Cc1ccc(S(=O)(=O)NC(C)(C)CSc2ncccn2)cc1` the value was greater than 50.6 µg/mL.
As for `Cc1csc(NC(=O)[C@@H]2CCCN2C(=O)c2cccs2)n1`, the solubility (kinetic) was determined as 44.2 µg/mL (≈ 138 µM).
Compound `CC(C)c1ccc(N=Cc2c(O)n(C3CC3)c(=S)[nH]c2=O)cc1` showed a kinetic solubility of 0.5 µg/mL (≈ 1.52 µM).
In the case of `CCC(=O)Nc1cccc(C(=O)Nc2nccs2)c1` it was greater than 41.3 µg/mL; in that of `COc1cccc(C2/C(=C(/O)c3ccc4c(c3)CC(C)O4)C(=O)C(=O)N2CC2CCCO2)c1` (configuration not stated), 64.7 µg/mL (≈ 144 µM).
Take `Cc1c(Cl)cccc1NC(=S)NC(=O)c1cncc(Br)c1`: the kinetic solubility is 5.1 µg/mL (≈ 13.3 µM). Against the preceding compound, the solubility kinetic is about 13-fold lower.
Turning to `Cc1cc(F)c(F)c(C(=O)N2C(C)CCCC2C)c1Cl` (configuration not stated), the kinetic solubility was determined as 14.5 µg/mL (≈ 48.1 µM).
Consider `N#Cc1nccnc1N1CCN(C(=O)Nc2ccccc2)CC1`, for which the kinetic solubility is greater than 46.3 µg/mL.
`CC(=O)NC(CC(=O)NCCc1ccccc1)c1ccccc1` (configuration not stated): the kinetic solubility stood at 45.7 µg/mL (≈ 147 µM).
For `CC(=O)c1ccc(NC(=O)COC(=O)CC2CC3CCC2C3)cc1` (configuration not stated), the kinetic solubility came out at 37.5 µg/mL (≈ 114 µM).
For `CC(C)c1ccc(C(C)NC(=S)NC2CCCCC2)cc1` (configuration not stated) the value was 1.9 µg/mL (≈ 6.24 µM); for `CC(C)CC(C(=O)Nc1cccc(O)c1)N1C(=O)c2ccccc2C1=O` (configuration not stated), greater than 52.9 µg/mL.
For `O=C(Nc1cccc(C(=O)NC2CCCC2)c1)c1ccccc1`, the kinetic solubility was 21.1 µg/mL (≈ 68.4 µM).
Take `O=C1NCCCC1C(=O)N1CCCCC1` (configuration not stated): the solubility (kinetic) was greater than 31.5 µg/mL.
On to `CC(=O)Nc1c(C)nn(-c2ccc([N+](=O)[O-])cc2)c1C`, for which the solubility (kinetic) is greater than 41.1 µg/mL.
Turning to `CC(C)(C)c1ccc(-c2nc(C#N)c(NCCCn3ccnc3)o2)cc1`, the kinetic solubility was found to be 1.2 µg/mL (≈ 3.43 µM).
Regarding `CC(=O)c1c(C)[nH]c(C(=O)/C(C#N)=C/c2cccc(C)c2)c1C`, the kinetic solubility stood at 39.5 µg/mL (≈ 129 µM). This solubility kinetic lies about 33-fold higher than the previous one.
In the case of `COc1ccc(/C=N/OC(=O)Nc2ccc(Cl)cc2)c(OC)c1` it was 6.2 µg/mL (≈ 18.5 µM).
`Cc1cc2nc(-c3ccc(=O)[nH]c3)n(Cc3ccccc3)c2cc1C` had a solubility (kinetic) of 43.4 µg/mL (≈ 132 µM).
Take `Cc1c(C=C2C(=O)NC(=O)NC2=O)c(=O)n(-c2ccccc2)n1C`: the kinetic solubility was greater than 48.9 µg/mL.
For `CCCC(=O)N/C(N)=N/c1nc(C)c2cc(C)ccc2n1` the value was 8.5 µg/mL (≈ 29.8 µM); for `CC(=O)CC(=O)C1C(=O)N(C)C(=O)N(C)C1=O`, greater than 36 µg/mL.
In the case of `CCNc1nc(NC(C)C)nc(N(C#N)CC(=O)OC)n1` it was greater than 44 µg/mL.
For `CC(=O)Oc1ccccc1/C=C/c1nc2ccccc2c(=O)o1` the value was 27.2 µg/mL (≈ 88.5 µM); for `O=C(NC12CC3CC(CC(C3)C1)C2)c1cc([N+](=O)[O-])ccc1Cl`, 0.6 µg/mL (≈ 1.79 µM).
The compound `COc1cc(/C=N/O)ccc1Oc1cnccn1` gave a solubility (kinetic) greater than 36.8 µg/mL.
Regarding `Cc1ccc2c(CN3CCOCC3)cc(=O)oc2c1`, the kinetic solubility was greater than 38.9 µg/mL.
`Cc1ccc(NS(=O)(=O)c2c(F)cc(F)c(Cl)c2F)cc1S(=O)(=O)N1CCOCC1` had a kinetic solubility greater than 72.7 µg/mL.
On to `CCOC(=O)c1cnc2c(ccc3ccccc32)c1Cl`, for which the solubility (kinetic) was less than 0.6 µg/mL.
For `Cc1ccc(SCC(=O)Nc2cccc(C)c2)cc1` the value was 0.8 µg/mL (≈ 2.95 µM).
The compound `CC(C)(C)N=C1C([N+](=O)[O-])=CC=C2C1=NC1(CCCCC1)N2O` gave a kinetic solubility of 45.3 µg/mL (≈ 142 µM).
Compound `Fc1cccc(NC(=S)NC2CCCCCCC2)c1` gave a solubility (kinetic) of 2.9 µg/mL (≈ 10.3 µM).
Regarding `O=S(=O)(c1ccc(Cl)nc1)N1CCc2ccccc21`, the kinetic solubility came out at 24.9 µg/mL (≈ 84.5 µM).
As for `O=C(CCNC(=O)c1ccco1)Nc1ccc(F)c(Cl)c1`, the solubility (kinetic) is 17.1 µg/mL (≈ 55 µM).
With `O=C(O)c1cc(S(=O)(=O)N2CCOCC2)c[nH]1`, the solubility (kinetic) is greater than 39 µg/mL.
`O=C(NC(=O)c1ccccc1)Nc1ccccc1` yielded a solubility (kinetic) of 1.2 µg/mL (≈ 4.99 µM).
In the case of `O=C(CSc1ncccc1C(=O)O)c1cccc(C(F)(F)F)c1` it was greater than 51.2 µg/mL; in that of `Cc1ccc(/C=C/C(=O)O)cc1S(=O)(=O)N1CCc2ccccc21`, greater than 51.5 µg/mL; in that of `O=C(c1ccc([N+](=O)[O-])cc1)N1C=CC(C(F)(F)F)=NCC1`, greater than 47 µg/mL.
For `Cc1ccc(S(=O)(=O)NC(=O)COc2ccccc2)cc1` the value was greater than 45.8 µg/mL.
Consider `CN(C)c1cc(-c2ccc(F)cc2)oc(=O)c1Cl`, for which the solubility (kinetic) was 7.2 µg/mL (≈ 26.9 µM).
The compound `COc1ccc(CC(=O)N2CCN(c3ccccc3OC)CC2)cc1OC` returned a kinetic solubility of 51.5 µg/mL (≈ 139 µM).
`FC(F)(F)c1ccccc1CN1CCC(Cc2ccccc2)CC1` returned a solubility (kinetic) of less than 0.7 µg/mL.
In turn, `COC(=O)c1ccncc1C(=O)Nc1ccc(OC)cc1` registered a kinetic solubility of 39.4 µg/mL (≈ 138 µM).
For the compound `CC1(C)C2CCC1(CS(=O)(=O)NC1CCCC1)C(=O)C2` (configuration not stated), the solubility (kinetic) was greater than 44.9 µg/mL.
The compound `Cc1ccc2nc(/C(C#N)=C/c3ccccc3C(=O)O)[nH]c2c1` displayed a kinetic solubility greater than 45.5 µg/mL.
Compound `Cc1ccc(C(=O)N/C(=C\c2cccnc2)C(=O)N2CCCC2)cc1` had a solubility (kinetic) greater than 50.3 µg/mL.
As for `CCC(C)NC(=O)c1cc(-c2ccc3c(c2)OCO3)on1` (configuration not stated), the solubility (kinetic) came to 3 µg/mL (≈ 10.4 µM).
`O=C(NCCCCc1ccccc1)c1cc([N+](=O)[O-])cc([N+](=O)[O-])c1` came in with a kinetic solubility of 9.9 µg/mL (≈ 28.8 µM). This solubility kinetic is about 3.3-fold higher than that of the compound before.
For `CCOc1ccc(CN(C)C(C)C(=O)NCc2ccccc2)cc1` (configuration not stated) the value was greater than 49 µg/mL; for `O=c1[nH]c(C(F)(F)F)nc2ccc3ccccc3c12`, greater than 39.6 µg/mL; for `CCOC(=O)N1CCN(c2nc3c(C)cccn3c(=O)c2C=O)CC1`, greater than 51.7 µg/mL.
Compound `Cc1cc(C=C2C(=O)NC(=O)NC2=O)c(C)n1-c1ccncc1` came in with a solubility (kinetic) greater than 46.5 µg/mL.
In turn, `Nc1ccc(N2CCOCC2)cc1C(F)(F)F` showed a solubility (kinetic) of 33.9 µg/mL (≈ 138 µM).
For `O=C(c1ccccc1Br)N1CCn2c1nc1ccccc12`, the kinetic solubility was 26.7 µg/mL (≈ 78 µM). This solubility kinetic and that of the compound before are within 1.5-fold of each other.
For `Cc1cccc(Nc2nc(-c3ccc(F)cc3)cs2)n1` the value was less than 0.2 µg/mL.
In turn, `O=C(CCOc1ccccc1)Nc1ccc(Br)cc1` came in with a solubility (kinetic) of less than 0.7 µg/mL.
In the case of `CC(NC(=O)CN1C(=O)NC2(CCCC2)C1=O)c1ccc(Cl)cc1Cl` (configuration not stated) it was 51.8 µg/mL (≈ 135 µM); in that of `Cc1ccc(S(=O)(=O)CCC(=O)NCCc2ccccc2)cc1`, greater than 49.7 µg/mL.
For `Nc1nc(CCl)nc(Nc2cccc3ccccc23)n1` the value was 41 µg/mL (≈ 143 µM).
In the case of `CC1CCc2[nH]c3ccc(C(=O)O)cc3c2C1` (configuration not stated) it was greater than 34.4 µg/mL.
Turning to `c1ccc(CN2CCN(Cc3ccc4ccccc4c3)CC2)cc1`, the solubility (kinetic) amounted to 23.4 µg/mL (≈ 73.9 µM).
In the case of `Cc1ccc(C(=O)c2ccccc2C(=O)OCC(=O)N2CCCC2)cc1` it was greater than 52.7 µg/mL; in that of `CCC(=O)NC(c1ccc(C)cc1)c1ccc2cccnc2c1O` (configuration not stated), 1.6 µg/mL (≈ 4.99 µM).
The compound `Cl.O=C(Nc1cccc(C(F)(F)F)c1)c1cccnc1NCCO` yielded a kinetic solubility greater than 54.3 µg/mL.
In the case of `CN(CC(=O)Nc1ccc(C(N)=O)cc1)S(=O)(=O)c1ccc2c(c1)OCCO2` it was 9.4 µg/mL (≈ 23.2 µM); in that of `COc1ccc2oc(C(=O)N3CCN(S(=O)(=O)c4ccc(F)cc4)CC3)c(C)c2c1`, 7.5 µg/mL (≈ 17.3 µM); in that of `O=C(O)CC(C(=O)Nc1ccc(Cl)cc1)N1CCCCCC1` (configuration not stated), greater than 48.7 µg/mL.
For the compound `N=C1c2ccccc2CN1c1ccc(F)c([N+](=O)[O-])c1`, the solubility (kinetic) is greater than 40.7 µg/mL.
In turn, `COc1cc(C2NC(=O)NC(C)=C2C(C)=O)ccc1O` (configuration not stated) showed a kinetic solubility greater than 41.4 µg/mL.
For the compound `Nc1ccc(-c2ccc(N)c([N+](=O)[O-])c2)cc1[N+](=O)[O-]`, the solubility (kinetic) was determined as 0.2 µg/mL (≈ 0.729 µM).
`Cc1c(C)c(C)c(S(=O)(=O)NCCc2ccccn2)c(C)c1C` yielded a solubility (kinetic) of 40.3 µg/mL (≈ 121 µM).
`CC(=O)N/C(=C\c1ccc(C)o1)C(=O)NCc1ccccc1` gave a kinetic solubility greater than 44.8 µg/mL.
Regarding `COc1ccc(CNc2cc(C)ccn2)cc1`, the kinetic solubility came to 17.4 µg/mL (≈ 76.2 µM).
In the case of `Cc1ccc(SCCN2CCN(C)CC2)cc1.Cl` it was 35.5 µg/mL; in that of `Cc1ccc(C(=O)NC(C)C2CC3CCC2C3)c(C)c1` (configuration not stated), 29.9 µg/mL (≈ 110 µM); in that of `CCc1ccc(C)[n+](CC(=O)c2cccs2)c1.[Cl-]`, greater than 42.3 µg/mL.
The compound `Cc1cccc(NC(=O)Nc2cccnc2)c1C` yielded a solubility (kinetic) greater than 36.2 µg/mL.
`c1ccc(-n2cnc3ccccc32)cc1`: the solubility (kinetic) amounted to 24.6 µg/mL (≈ 127 µM).
In turn, `O=C(O)c1ccc(S(=O)(=O)N(Cc2cccs2)CC2CCCO2)cc1` (configuration not stated) had a solubility (kinetic) greater than 57.2 µg/mL.
For `COc1ccc(OC)c(N=Cc2c(O)c3ccccc3oc2=O)c1` the value was 3.6 µg/mL (≈ 11.1 µM).
